# Marks after values point to notes of the source that are not given here. No end group written: not given here. *: point of attachment. dPhe(β-Ph) = β-phenyl D-Phe (N-terminal, N-acetylated), CC(=O)N[C@@H](C(=O)*)C(c1ccccc1)c1ccccc1
# Assays:
# ECE-1 [1] = molecular target: T1, ECE-1 (Rattus norvegicus, UniProt P42893); test: ECE-1 activity in plasma membrane fraction of rat lung tissue (conversion of 125I Big ET-1 to 125I ET-1); type: biochemical
# T1 construct: The endogenous ECE from the plasma membrane fraction converted the; from tissue; host or cells: rat lung tissue, plasma membrane fraction
# T1 sequence (P42893 1-762): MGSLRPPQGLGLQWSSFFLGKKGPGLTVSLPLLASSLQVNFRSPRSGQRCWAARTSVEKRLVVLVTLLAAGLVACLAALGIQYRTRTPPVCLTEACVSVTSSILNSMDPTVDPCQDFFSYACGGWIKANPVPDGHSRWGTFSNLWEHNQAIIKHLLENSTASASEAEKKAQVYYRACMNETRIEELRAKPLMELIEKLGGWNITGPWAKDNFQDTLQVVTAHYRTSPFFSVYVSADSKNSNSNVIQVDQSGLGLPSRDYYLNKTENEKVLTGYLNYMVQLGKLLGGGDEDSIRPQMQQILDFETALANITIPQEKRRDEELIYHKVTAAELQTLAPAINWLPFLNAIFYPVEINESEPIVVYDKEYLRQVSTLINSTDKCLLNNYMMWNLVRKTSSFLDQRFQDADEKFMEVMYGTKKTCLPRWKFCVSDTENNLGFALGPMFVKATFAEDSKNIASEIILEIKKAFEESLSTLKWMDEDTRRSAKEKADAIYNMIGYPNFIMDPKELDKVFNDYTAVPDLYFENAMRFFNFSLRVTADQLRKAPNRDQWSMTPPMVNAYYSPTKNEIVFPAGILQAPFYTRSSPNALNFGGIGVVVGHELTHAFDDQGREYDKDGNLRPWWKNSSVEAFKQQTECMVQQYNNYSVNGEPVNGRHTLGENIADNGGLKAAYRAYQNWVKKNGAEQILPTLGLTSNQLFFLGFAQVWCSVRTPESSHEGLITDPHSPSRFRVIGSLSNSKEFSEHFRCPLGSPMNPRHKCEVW
# Protocol: (§1) Fractions were incubated at 37° C. and collected at various time periods ranging from 5 minutes to 24 hours. […] Values represent the mean±SEM for data obtained from replicate samples. Statistical significance of mean [ET-1] among different time periods in HNPE cells as determined by one-way ANOVA and Student-Newman-Keuls multiple comparison test at p<0.05 (5 min n=3; 10 min n=6; 180 min n=9; 24 hrs n=4). Values that were statistically different are identified with an asterisk (“*”). Statistical significance of mean [ET−1] among different time periods in rat lung tissue as determined by one-way ANOVA and Student-Newman-Keuls multiple comparison test at p<0.05 (n=6 for 180 minutes; n=4 for other time periods) and denoted with a cross (“†”). It should be noted that the regression analysis (“r^2”) and line equation (“y=m×+b”) for percent ECE-1 activity were calculated based on a line graph with equal scale on the X axis ranging from 0-1500 minutes.
# (§2) Briefly, plasma membrane fractions (e.g. 20 μg total protein) of HNPE cells and rat lung tissue were incubated with 80 fmoles/mg protein of ^125I Big ET-1 for 180 minutes. […] However, each of the samples was divided into two groups: a control; and the CGS 26303 treated group. […] The data were analyzed statistically by one-way ANOVA, and those values that show a significant difference (p<0.05 level) are identified with an asterisk (*).
# ECE-1 [2] = molecular target: T2, ECE-1 (Homo sapiens, UniProt P42892); test: ECE-1 activity in plasma membrane fraction of HNPE cells (conversion of 125I Big ET-1 to 125I ET-1); type: biochemical
# T2 construct: The endogenous ECE from the plasma membrane fraction converted the; endogenous in cells; host or cells: HNPE cells (human non-pigmented ciliary epithelial), plasma membrane fraction
# T2 sequence (P42892 1-770): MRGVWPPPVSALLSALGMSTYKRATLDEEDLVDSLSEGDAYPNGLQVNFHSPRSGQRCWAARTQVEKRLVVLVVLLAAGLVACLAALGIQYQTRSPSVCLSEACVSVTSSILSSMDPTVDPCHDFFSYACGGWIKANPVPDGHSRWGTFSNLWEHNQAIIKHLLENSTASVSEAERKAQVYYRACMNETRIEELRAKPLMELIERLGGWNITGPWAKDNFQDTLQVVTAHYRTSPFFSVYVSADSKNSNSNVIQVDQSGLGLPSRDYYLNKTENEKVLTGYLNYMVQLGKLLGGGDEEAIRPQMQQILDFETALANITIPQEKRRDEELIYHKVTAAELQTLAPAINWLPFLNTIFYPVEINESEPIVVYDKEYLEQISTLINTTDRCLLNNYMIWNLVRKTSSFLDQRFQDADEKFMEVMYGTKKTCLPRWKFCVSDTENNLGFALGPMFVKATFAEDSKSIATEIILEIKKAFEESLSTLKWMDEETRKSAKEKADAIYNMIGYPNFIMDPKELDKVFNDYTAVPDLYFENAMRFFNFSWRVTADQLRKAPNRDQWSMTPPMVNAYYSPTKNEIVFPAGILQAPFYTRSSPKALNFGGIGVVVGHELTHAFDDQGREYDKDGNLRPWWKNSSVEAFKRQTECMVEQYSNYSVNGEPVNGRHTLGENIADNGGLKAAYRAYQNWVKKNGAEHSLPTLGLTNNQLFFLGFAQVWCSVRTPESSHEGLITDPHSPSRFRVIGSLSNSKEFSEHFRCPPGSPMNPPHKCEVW
# Protocol: as §1, §2
# [3] = tested on: human non-pigmented ciliary epithelial (HNPE) cells; test: Nitric oxide release from HNPE cells (nitrite, Griess colorimetric assay); type: cell-based; conditions: pre-treated with PD-142893 (1 μM) 30 minutes, then 100 nM ET-1, 24 hours; vs ET-1 alone
# Protocol: The effect of endothelin-1 (ET-1) and PD-142893, an ETA/B receptor antagonist, on nitric oxide (“NO”) release from human non-pigmented ciliary epithelial (HNPE) cells are illustrated in FIG. 6. The NO released into the culture media from HNPE cells grown in 24-well plates and treated with ET-1 (100 nM) for 24 hours was converted to nitrites. The total amount of nitrites was measured using the Griess colorimetric assay. HNPE cells were pre-treated with PD-142893 (1 μM) for 30 minutes and then 100 nM ET-1 was also added and incubated for 24 hours. The values in FIG. 6 represent the mean±SEM of a ratio between the nitrite produced under experimental conditions divided by the nitrite produced in control cells, which corresponded to 14.4±1.8 μM and controls were expressed as 100% (n=3). Statistical significance of the nitrite released from ET-1 (100 nM) treatment versus the control are denoted with an asterisk (“*”). Statistical significance of the nitrite released from PD-142893+ET-1 (100 nM) treatment versus that of ET-1 (100 nM) are denoted as a double asterisk (“**”) The statistical differenced were determined by one-way ANOVA and Student-Newman-Keuls multiple comparison test (p<0.05). Thus, addition of ET-1 increased the nitrite levels nearly 2-fold when compared to control cells or cells treated with PD-142893.
# rat optic nerve = test: Anterograde axonal transport in rat optic nerve after intravitreal injection (35S-methionine pulse label); type: in vivo; conditions: 28 hour ISI, 2 mmol dose, p>0.999, ANOVA, N=7
# Excerpt: Newly synthesized proteins undergoing anterograde axonal transport in the optic nerve were pulse-labeled in either the presence or absence of endothelin as modified from previously published methods (van Biesen et al., 1995). Modifications to previously published methods were minimal and involved the replacement of a distilled water vehicle for resuspension of radiolabeled precursors with either HEPES buffered ET-1 or HEPES vehicle buffer alone. ^35S-Methionine (Easytag EXPRESS PROTEIN LABELING MIX, Dupont-NEN Life Sciences, Boston, Mass.) was lyophilized and resuspended in either vehicle alone (10 mM HEPES, pH 7.4, Sigma Chemical Co., St Louis, Mo.) or in vehicle containing 500 μM ET-1 (Bachem, Belmont, Calif.). Rats were anesthetized by Metofane inhalation, and 0.8 mCi (4 μl) of radiolabel in vehicle either plus or minus ET-1 (final dose 2 mmols), was injected into the vitreous of the left eye using a 30 gauge needle attached to a Hamilton syringe (microliter #710, 22s gauge, Hamilton Co., Reno, Nev.) by polyethylene tubing (PE-20, Clay Adams Brand, Becton Dickson and Co., Sparks, Md.) (van Biesen et al., 1995). In one experiment, ET-3 was substituted for ET-1, using the same methods (2 mmol dose, 28 hour ISI, N=7 for controls, N=7 for experimentals). […] One minute after injection, all retinas appeared normal in color. (Based upon these initial observations, further observations of the retinas were not performed). Information on the dose-related effect(s) of intravitreal ET-1 in this species (i.e. rat) were unavailable, and physiological/pathological concentrations of endothelin in the optic nerve head's microenvironment are generally unknown. Therefore, dose selection was made on the basis of a small pilot study, using these methods and measuring the total pulse-labeled protein axonally transported into the rat optic nerve. (An N of 3 rats in every group was used only for the pilot study, 4 hour ISI, data not shown). […] However, significant effects on axonal transport (4 hour ISI) were only seen in the pilot study for the 2 mmol dose. […] Possible effect(s) on non-assayed ocular tissues were not considered in dose selection, as data on these were unavailable for either acute or chronic intravitreal ET-1 administration, in rats.
# This technique was employed to determine if endothelin-1 also affected the axonal transport in the optic nerve of rats, which is severely compromised in glaucoma. Harvest and preparation of pulse-labeled optic nerves in animals, wherein animals were anesthetized with metofane at specified times after injection and sacrificed by decapitation. Injection-sacrifice intervals were selected based upon the published characterizations of anterograde axonal transport in rat optic nerve for specific marker proteins associated with specific classes of axonally transported materials (Table 4) (Elluru et al., 1995; Garner and Lasek, 1981; Garner and Lasek, 1982; Jahn et al., 1985). Seven vehicle-treated animals and seven endothelin-treated animals were sacrificed at each of the specified times (4, 24, 28, 32, 36 hours and 4, 21 days). Optic nerves were removed, flash frozen with crushed dry ice, and sectioned frozen. Nerves were sectioned to aid complete homogenization, and to provide additional data for future studies. The frozen sections (2 mm in length) were numbered as segments 1-4 (from proximal to distal), and glass-on glass homogenized in 100 μlof BUST sample buffer (2% β-mercaptoethanol, 8M urea, 1% SDS, 0.1M Tris, 0.02% phenol red, pH 7.4). A 25% aliquot of each homogenized segment was counted in a liquid scintillation counter, and counts were corrected for decay, quench, and counting efficiency.
compound,measurement,setting,value
O=P(O)(O)CN[C@@H](Cc1ccc(-c2ccccc2)cc1)c1nn[nH]n1 [CGS 26303],decrease in 125I ET-1,"ECE-1 [1]; rat lung plasma membrane fraction, 180 minutes, vs control",56%
same,fmoles 125I ET-1 produced/mg protein/180 min,"ECE-1 [1]; rat lung tissue plasma membrane fraction, 100 μM CGS-26303, 180 min, 37° C., control 25 ± 1",11 ± 4* fmoles ^125I ET-1 produced/mg protein/180 min
same,fmoles 125I ET-1 produced/mg protein/180 min,"ECE-1 [2]; HNPE cells plasma membrane fraction, 100 μM CGS-26303, 180 min, 37° C., control 27 ± 1",12 ± 2* fmoles ^125I ET-1 produced/mg protein/180 min
same,decrease in 125I ET-1 production,"ECE-1 [2]; HNPE plasma membrane fraction, 180 minute time period, vs control",55%
"N-Acetyl-b-phenyl D-Phy-Leu-Asp-Ile-Ile-Trp ({Ac-dPhe(β-Ph)}-LDIIW) [PD-142893, ETA/B receptor antagonist]","nitrite production, PD-142893 + ET-1",[3],decrease in nitrite production
"ET-3: ETB-receptor-selective agonist, endothelin isopeptide (CTCFTYKDKECVYYCHLDIIW; ends and bridges not checked; cysteine pairing not given here; UniProt P14138 97-117, looked up)",effect of intravitreal ET-3 on anterograde axonal transport compared with ET-1,rat optic nerve,no significant difference between ET-1 and ET-3

# Source: US20030176356A1, “Endothelin antagonists and endothelin-converting enzyme inhibitors for the treatment of glaucoma” (University of North Texas Health Science Center, priority 2001, published 2003)
